This is an account of results in PubChem BioAssay (NCI).

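Assay format: 96-well plates, 48-hour exposure. Definition used: TGI = concentration required for complete inhibition of growth.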

Holding throughout (test): NCI-60 cell line screen, 48 h
Test [1] deals with CAKI-1 renal.
In test [2] the test system is SK-OV-3 ovarian.
Test [3] deals with A549 NSCLC.
Test [4] relates to NCI-H226 lung.
In test [5] the test system is HCC-2998 colon.
The subject of test [6] is NCI-H522 lung.
In test [7] the test system is T-47D breast.
Test [8] relates to MDA-MB-231 breast.
The subject of test [9] is LOX IMVI melanoma.
In test [10] the test system is HL-60(TB) leukemia.
Test [11] relates to SR leukemia.

For the compound `CCOC(=O)Nc1n[nH]nc1Cl`, the TGI in test [1], in test [2], in test [3], in [4], in test [5] and in test [6] was greater than 100 µM in each case. In addition, the TGI in test [7], in test [8] and in test [9] was greater than 100 µM each time.

For `O=C1Nc2ccccc2/C1=C\c1c(-c2ccccc2)nc2n1CCS2`, the TGI in test [1] is greater than 100 µM; in test [2], 67.1 µM; in test [3] it was greater than 100 µM; in test [5], 34.8 µM; in [6] it was 51.7 µM; in test [7] it was 76.8 µM. The TGI came out at 47 µM in test [8], 42.3 µM in test [10] and 38.6 µM in test [9].

For the compound `CCCCCCCCCCCCCCCC(=O)Nc1ccn(C2CCC(COP(=O)(O)OCC3OC(n4cc(F)c(=O)[nH]c4=O)CC3OC(C)=O)O2)c(=O)n1` (stereo not given), the TGI in test [1] was greater than 42.5 µM; in [2], greater than 90.2 µM; in test [3], greater than 54.2 µM; in test [4], greater than 100 µM; in test [5], greater than 48.2 µM; in [6], 27.7 µM. The TGI in test [7] is greater than 66.5 µM; in test [8], greater than 61.6 µM; in test [10], 27.9 µM; in [9] it was 39.8 µM.

Consider `C(=N\NC1=NCCN1)/c1cccc2cc3ccncc3nc12`, for which the TGI was determined as 14.1 µM in test [1]; 23.5 µM in [2]; 20.2 µM in test [3]; 21.2 µM in [4]; 18.3 µM in test [5]; 11.9 µM in test [6]. The TGI in test [7] was determined as 12.7 µM; in test [8], 6.13 µM; in test [10], 2.76 µM; in test [9], 3.39 µM.

For `COC(=O)CC(CNC(=O)OCc1ccccc1)OCc1ccc(OC)cc1` (stereo not given), the TGI in test [1], in test [2], in test [3], in test [4], in test [5] and in test [6] was greater than 100 µM throughout. In addition, the TGI in test [8], in test [10], in test [9] and in test [11] was greater than 100 µM each time.

Turning to `COc1ccc2[nH]c3c4c(cc(-c5ccccc5)c3c2c1)C(=O)N(c1ccccc1)C4=O`, the TGI was greater than 77.7 µM in test [1]; greater than 93.1 µM in [2]; greater than 100 µM in [3]; greater than 100 µM in test [4]; greater than 100 µM in test [5]; 61 µM in [6]. In addition, the TGI was greater than 100 µM in test [10], greater than 92 µM in test [9] and 19.9 µM in test [11].

With `O=C(Cc1ccccc1)N/N=C(/c1nc2ccc([N+](=O)[O-])cc2[nH]c1=O)C(O)c1ccc(C(O)/C(=N/NC(=O)Cc2ccccc2)c2nc3ccc([N+](=O)[O-])cc3[nH]c2=O)cc1` (stereo not given), the TGI in test [1] was greater than 100 µM; in test [2] it was greater than 100 µM; in test [3] it was greater than 100 µM; in test [4] it was greater than 100 µM; in test [5] it was greater than 100 µM; in test [6], 94.6 µM. Besides, the TGI in test [10] and in test [9] was greater than 100 µM each time.

For the compound `O=C1Oc2cc3c(c4cccc1c24)OCN(c1ccccc1)C3`, the TGI in test [1] is greater than 100 µM; in test [2], greater than 100 µM; in test [3] it was greater than 100 µM; in [5], greater than 100 µM; in test [6], 56.9 µM; in [10], greater than 100 µM. Besides, the TGI in test [9] and in [11] was greater than 100 µM each time.

Take `O=c1oc2ccc3ccccc3c2cc1-c1cn2c(n1)sc1ccccc12`: the TGI in [1], in test [2], in test [3], in [4], in test [5] and in [6] was greater than 100 µM each time. Besides, the TGI in [8], in [10] and in test [9] was greater than 100 µM in each case.

For `CC(=O)Oc1ccc(Nn2c3ccccc3c3ccccc32)c(C)c1`, the TGI in [2] was greater than 100 µM; in test [3] it was greater than 100 µM; in test [5] it was 79.5 µM; in test [6], 46.3 µM; in test [10], 63.2 µM; in test [11], 65.5 µM.

As to `O=[N+]([O-])c1ccc(CN=C2NNS(=O)(=O)c3ccccc32)cc1`, the TGI in test [1], in test [3], in test [4], in test [5], in [10] and in test [9] was greater than 100 µM throughout. Moreover, the TGI in test [11] stood at 99.7 µM.

Turning to `C#C[C@]1(O)[C@@H](CO)O[C@@H](n2ccc(N)nc2=O)[C@@H]1O`, the TGI in [1] is 0.122 µM; in test [2], greater than 100 µM; in [3], greater than 100 µM; in test [4], 3.66 µM; in test [5], 0.196 µM; in [6], 0.0365 µM. Further, the TGI in test [8] was greater than 100 µM; in test [10] it was greater than 100 µM; in test [9], 0.0945 µM.

In the case of `Cc1c(-c2nc(N)c(C#N)c(N)c2C#N)c(=O)oc2ccccc12`, the TGI in test [1], in test [2], in [3], in test [4], in test [5] and in [7] was greater than 100 µM in each case. The TGI in test [8], in test [10] and in test [9] was greater than 100 µM throughout.

`Cc1ccc(C(=O)N2CCCCC2)cc1N=NN(C)C`: the TGI in [1], in test [3], in [4], in test [5], in test [6] and in [10] was greater than 100 µM throughout. Moreover, the TGI in [9] and in test [11] was greater than 100 µM in each case.

Take `CN1c2ccccc2C(=O)NC12CCNCC2`: the TGI in test [2], in test [3], in test [4], in test [5], in test [7] and in test [10] was greater than 100 µM each time. Further, the TGI in test [9] and in [11] was greater than 100 µM each time.

Regarding `CCCCCC#COC1CC(C)CC[C@@H]1C(C)C` (stereo not given in full), the TGI in test [1] is greater than 100 µM; in [2] it was greater than 100 µM; in [3], greater than 100 µM; in test [4], greater than 100 µM; in test [5], greater than 100 µM; in [6] it was 52.2 µM. Further, the TGI in test [10] is 55 µM; in [9], 29.9 µM.

As to `CN1C(C)(C)CC(=O)C(Br)C1(C)C` (stereo not given), the TGI in test [1], in test [2], in [3], in test [4], in test [6] and in [7] was greater than 100 µM in each case. Besides, the TGI in test [10], in test [9] and in [11] was greater than 100 µM each time.

`O=C(CCN1CCC(CCO)CC1)Nc1ccc2c(c1)C(=O)c1ccc(NC(=O)CCN3CCC(CCO)CC3)cc1C2=O`: the TGI in test [1] was greater than 100 µM; in [2], 46.3 µM; in [3], greater than 100 µM; in [4], 76.5 µM; in [5], 88.7 µM; in test [6] it was 24 µM. Moreover, the TGI is greater than 100 µM in test [10], 64 µM in [9] and 55.7 µM in test [11].

On to `COC1=CC(=O)c2c(cc3c(c2O)-c2c(OC)cc4cc5c(c(O)c4c2OC(=O)CC(C)(O)C3)C(=O)CC(C)(O)C5)C1=O` (stereo not given), for which the TGI in test [1] was 5.87 µM; in test [2], 7.47 µM; in [3] it was 10.7 µM; in test [4] it was 4.08 µM; in test [5], 3.21 µM; in test [6], 2.67 µM. The results for the TGI in test [10], in [9] and in test [11] were 5.56 µM, 2.94 µM and 5.07 µM, respectively.

Regarding `CCCn1c(=O)c2nn3c(=O)n(CCC)c(=O)c3nn2c1=O`, the TGI in [1], in [2], in [3], in test [4], in test [5] and in test [6] was greater than 100 µM each time. Further, the TGI in test [7], in [10], in test [9] and in [11] was greater than 100 µM in each case.

On to `O=C1C=CC(=O)c2cc(Sc3ccccc3)c(=O)c(Sc3ccccc3)cc21`, for which the TGI is greater than 100 µM in test [1]; greater than 100 µM in test [2]; greater than 100 µM in test [3]; greater than 100 µM in [4]; greater than 100 µM in [5]; 25.4 µM in test [6]. Moreover, the TGI in test [10] is 27.7 µM; in test [9], greater than 100 µM; in test [11], greater than 100 µM.

Turning to `c1ccc2cc(CNCCCCNCCCNCc3ccc4ccccc4c3)ccc2c1`, the TGI in test [1] was found to be 3.31 µM; in test [2], 3.48 µM; in test [3], 4.25 µM; in [4], 2.78 µM; in test [5] it was 0.944 µM; in test [6] it was 2.78 µM. In addition, the TGI in [8] turned out to be 3.95 µM; in [9] it was 0.358 µM.

As for `COC(=O)[C@H](COC(C)(C)C)NC(=O)N[C@H](C)c1ccccc1`, the TGI in test [1], in test [2], in test [3], in test [4], in [5] and in test [6] was greater than 100 µM each time. For the same compound, the TGI in test [8], in test [10], in [9] and in test [11] was greater than 100 µM in each case.

For the compound `CC1=NC=C(O)c2ccccc2O1`, the TGI in test [2], in [3], in [5], in test [10] and in [9] was greater than 100 µM throughout.

`c1ccc2nn(C3CCCO3)nc2c1` (stereo not given): the TGI in [1], in test [2], in [3], in test [4], in [5] and in test [6] was greater than 100 µM throughout. Further, the TGI in test [7], in test [8] and in [10] was greater than 100 µM throughout.

Regarding `C=CC(=O)NCNC(=O)C=C`, the TGI in test [1], in test [2], in test [3], in test [4], in test [5] and in test [6] was greater than 100 µM each time. The TGI in test [10], in [9] and in test [11] was greater than 100 µM in each case.

Take `Nc1nc(N)c2ncn(-c3ccccc3)c2n1`: the TGI in [1], in [2], in test [3], in test [4], in test [5] and in test [6] was greater than 100 µM throughout. The TGI in [7], in [8] and in test [9] was greater than 100 µM throughout.

On to `COC(=O)[C@@H](OC(C)=O)[C@@H](OC(C)=O)c1nnc2ccc(Cl)nn12`, for which the TGI in [1] is greater than 100 µM; in test [2], greater than 100 µM; in test [3] it was greater than 100 µM; in test [5], greater than 100 µM; in test [6] it was 95.3 µM; in [7] it was greater than 100 µM. Further, the TGI in [8], in [10] and in [9] was greater than 100 µM in each case.

On to `Cc1cccc2c1c(=O)c1c(O)cc3c(c1n2C)C=CC(C)(C)O3`, for which the TGI in [1], in [2], in test [3], in [4], in test [5] and in [6] was greater than 100 µM throughout. The TGI in test [8], in test [10], in test [9] and in test [11] was greater than 100 µM throughout.

As to `O=C1CCCC2=C1CC1=C(CCCC1=O)N2c1ccc([N+](=O)[O-])cc1`, the TGI in test [1], in test [2], in test [3], in [4], in [5] and in test [10] was greater than 100 µM in each case. For the same compound, the TGI in test [9] and in [11] was greater than 100 µM throughout.
